Measurements: ChEMBL document CHEMBL5725403, “Compounds and pharmaceutical compositions thereof for the treatment of inflammatory disorders” (2017)

Biological target: Autotaxin (Homo sapiens, UniProt Q13822)
Experiment: Human ENPP2 (hENPP2) Assay: Compound IC50 values are determined in a hENPP2 (UniProtKB/SwissProt Sequence ref Q13822) biochemical assay using LPC as substrate. […] The enzyme is diluted in 50 mM Tris-HCl pH 8.5, 500 mM NaCl, 5 mM KCl, 10 mM CaCl2, 0.1% fatty acid free BSA in a total volume of 10 μL. the reaction is started by the addition of 10 μL of 150 μM LPC (palmitoyl 16:0) diluted in the same buffer as described above and the mixture is incubated at 37° C. for 30 min. The reaction is terminated and choline quantified by the addition of a 25 μL of a mixture containing 0.6 U/mL of choline oxidase, 0.6 U/mL of peroxydase, 1.8 mM TOOS, 1.2 mM amino-antipyrine, 20 mM EGTA (stop-developer solution) diluted in the buffer described above. […] is read on the Envision after an incubation of 30 min at room temperature (Excitation 555 nm, excitation light=70%).

CCc1nc2ccc(C3CCN(S(C)(=O)=O)CC3)cn2c1N(C)c1nc(-c2ccc(F)cc2)c(Br)s1
IC50: > 1000 nM
